Assay results from the NIST ThermoML archive (doi:10.1021/je8009545).
Numbers after ± are expanded uncertainties.

Tests used:
[1] = Gas; for mass density: Gas pipette; for viscosity: Oscillating disk viscometry
[2] = xn = mol fraction of the nth substance listed; details: Gas, x2 = 0; for mass density: Gas pipette; for viscosity: Oscillating disk viscometry

COC [dimethyl ether]
[1]
Details	mass density [kg/m3]	viscosity [mPa·s]
298.15 K, 101 kPa	1.91 ± 0.12	0.00922 ± 0.00037
298.15 K, 296 kPa	6.081 ± 0.37	0.00918 ± 0.00037
298.15 K, 475 kPa	10.06 ± 0.6	0.0091 ± 0.00037
323.15 K, 101 kPa	1.652 ± 0.1	0.00997 ± 0.00039
323.15 K, 295 kPa	5.561 ± 0.33	0.00996 ± 0.00039
323.15 K, 490 kPa	9.31 ± 0.56	0.00993 ± 0.00039
323.15 K, 736 kPa	14.71 ± 0.88	0.00995 ± 0.00039
323.15 K, 976 kPa	22.53 ± 1.4	0.00994 ± 0.00039
348.15 K, 101 kPa	1.332 ± 0.082	0.01081 ± 0.00041
348.15 K, 305 kPa	5.17 ± 0.31	0.01081 ± 0.00041
348.15 K, 551 kPa	9.705 ± 0.58	0.01082 ± 0.00041
348.15 K, 1006 kPa	19.03 ± 1.1	0.01085 ± 0.00041
348.15 K, 1561 kPa	35.81 ± 2.1	0.01094 ± 0.00041
348.15 K, 1850 kPa	44.66 ± 2.7	0.01106 ± 0.00041
373.15 K, 101 kPa	1.235 ± 0.076	0.01161 ± 0.00042
373.15 K, 305 kPa	4.748 ± 0.28	0.0116 ± 0.00042
373.15 K, 500 kPa	7.787 ± 0.47	0.01162 ± 0.00042
373.15 K, 1028 kPa	16.71 ± 1	0.01168 ± 0.00043
373.15 K, 1940 kPa	35.33 ± 2.1	0.01191 ± 0.00043
373.15 K, 2505 kPa	51.25 ± 3.1	0.01219 ± 0.00044
373.15 K, 2875 kPa	67.49 ± 4	0.01247 ± 0.00044
373.15 K, 3049 kPa	74.07 ± 4.4	0.01261 ± 0.00045
398.15 K, 101 kPa	0.948 ± 0.059	0.01234 ± 0.00044
398.15 K, 300 kPa	4.392 ± 0.26	0.01237 ± 0.00044
398.15 K, 531 kPa	7.678 ± 0.46	0.01239 ± 0.00044
398.15 K, 992 kPa	15.1 ± 0.91	0.01244 ± 0.00044
398.15 K, 2085 kPa	34.47 ± 2.1	0.01274 ± 0.00045
398.15 K, 2985 kPa	54.66 ± 3.3	0.01317 ± 0.00046
398.15 K, 3965 kPa	87.68 ± 5.3	0.0141 ± 0.00048
398.15 K, 4480 kPa	112.3 ± 6.7	0.01504 ± 0.0005
398.15 K, 4620 kPa	122.4 ± 7.3	0.01543 ± 0.00051
423.15 K, 101 kPa	1.009 ± 0.063	0.01332 ± 0.00046
423.15 K, 310 kPa	4.289 ± 0.26	0.01333 ± 0.00046
423.15 K, 505 kPa	6.812 ± 0.41	0.01335 ± 0.00047
423.15 K, 985 kPa	13.75 ± 0.83	0.01342 ± 0.00047
423.15 K, 2022 kPa	30.21 ± 1.8	0.0137 ± 0.00047
423.15 K, 3004 kPa	48.47 ± 2.9	0.01413 ± 0.00048
423.15 K, 4015 kPa	71.3 ± 4.3	0.01477 ± 0.0005
423.15 K, 4495 kPa	86.57 ± 5.2	0.01521 ± 0.00051
423.15 K, 4912 kPa	99.15 ± 6	0.01568 ± 0.00052

N#N [nitrogen]
[1]
Details	mass density [kg/m3]	viscosity [mPa·s]
298.15 K, 101 kPa	1.178 ± 0.072	0.01786 ± 0.00057
298.15 K, 240 kPa	2.833 ± 0.17	0.01788 ± 0.00057
298.15 K, 672 kPa	7.705 ± 0.46	0.01794 ± 0.00057
323.15 K, 101 kPa	0.858 ± 0.053	0.01901 ± 0.0006
323.15 K, 290 kPa	3.114 ± 0.19	0.01904 ± 0.0006
323.15 K, 466 kPa	4.925 ± 0.3	0.01906 ± 0.0006
323.15 K, 856 kPa	9.024 ± 0.54	0.01911 ± 0.0006
348.15 K, 101 kPa	0.761 ± 0.047	0.0201 ± 0.00062
348.15 K, 518 kPa	5.043 ± 0.3	0.02016 ± 0.00062
348.15 K, 1010 kPa	9.8 ± 0.59	0.02022 ± 0.00062
348.15 K, 2028 kPa	19.63 ± 1.2	0.02037 ± 0.00063
373.15 K, 101 kPa	0.633 ± 0.039	0.02116 ± 0.00065
373.15 K, 495 kPa	4.527 ± 0.27	0.02121 ± 0.00065
373.15 K, 1000 kPa	8.832 ± 0.53	0.02126 ± 0.00065
373.15 K, 2006 kPa	18.01 ± 1.1	0.0214 ± 0.00065
373.15 K, 2930 kPa	26.15 ± 1.6	0.02152 ± 0.00066
373.15 K, 3985 kPa	35.64 ± 2.1	0.02168 ± 0.00066
373.15 K, 4966 kPa	44.7 ± 2.7	0.02184 ± 0.00066
398.15 K, 101 kPa	0.727 ± 0.045	0.02219 ± 0.00067
398.15 K, 520 kPa	4.329 ± 0.26	0.02222 ± 0.00067
398.15 K, 1003 kPa	8.657 ± 0.52	0.02228 ± 0.00067
398.15 K, 2000 kPa	16.49 ± 0.99	0.0224 ± 0.00068
398.15 K, 3473 kPa	28.94 ± 1.7	0.02259 ± 0.00068
398.15 K, 4849 kPa	40.28 ± 2.4	0.02278 ± 0.00068
423.15 K, 101 kPa	0.568 ± 0.035	0.02318 ± 0.00069
423.15 K, 550 kPa	4.226 ± 0.25	0.02322 ± 0.00069
423.15 K, 1032 kPa	8.294 ± 0.5	0.02328 ± 0.0007
423.15 K, 2012 kPa	15.86 ± 0.95	0.02338 ± 0.0007
423.15 K, 3435 kPa	26.9 ± 1.6	0.02354 ± 0.0007
423.15 K, 4832 kPa	37.69 ± 2.3	0.02373 ± 0.00071

N#N [nitrogen] + COC
[2]
Details	mass density [kg/m3]	viscosity [mPa·s]
298.15 K, 101 kPa	1.178 ± 0.072	0.01786 ± 0.00057
298.15 K, 240 kPa	2.833 ± 0.17	0.01788 ± 0.00057
298.15 K, 672 kPa	7.705 ± 0.46	0.01794 ± 0.00057
323.15 K, 101 kPa	0.858 ± 0.053	0.01901 ± 0.0006
323.15 K, 290 kPa	3.114 ± 0.19	0.01904 ± 0.0006
323.15 K, 466 kPa	4.925 ± 0.3	0.01906 ± 0.0006
323.15 K, 856 kPa	9.024 ± 0.54	0.01911 ± 0.0006
348.15 K, 101 kPa	0.761 ± 0.047	0.0201 ± 0.00062
348.15 K, 518 kPa	5.043 ± 0.3	0.02016 ± 0.00062
348.15 K, 1010 kPa	9.8 ± 0.59	0.02022 ± 0.00062
348.15 K, 2028 kPa	19.63 ± 1.2	0.02037 ± 0.00063
373.15 K, 101 kPa	0.633 ± 0.039	0.02116 ± 0.00065
373.15 K, 495 kPa	4.527 ± 0.27	0.02121 ± 0.00065
373.15 K, 1000 kPa	8.832 ± 0.53	0.02126 ± 0.00065
373.15 K, 2006 kPa	18.01 ± 1.1	0.0214 ± 0.00065
373.15 K, 2930 kPa	26.15 ± 1.6	0.02152 ± 0.00066
373.15 K, 3985 kPa	35.64 ± 2.1	0.02168 ± 0.00066
373.15 K, 4966 kPa	44.7 ± 2.7	0.02184 ± 0.00066
398.15 K, 101 kPa	0.727 ± 0.045	0.02219 ± 0.00067
398.15 K, 520 kPa	4.329 ± 0.26	0.02222 ± 0.00067
398.15 K, 1003 kPa	8.657 ± 0.52	0.02228 ± 0.00067
398.15 K, 2000 kPa	16.49 ± 0.99	0.0224 ± 0.00068
398.15 K, 3473 kPa	28.94 ± 1.7	0.02259 ± 0.00068
398.15 K, 4849 kPa	40.28 ± 2.4	0.02278 ± 0.00068
423.15 K, 101 kPa	0.568 ± 0.035	0.02318 ± 0.00069
423.15 K, 550 kPa	4.226 ± 0.25	0.02322 ± 0.00069
423.15 K, 1032 kPa	8.294 ± 0.5	0.02328 ± 0.0007
423.15 K, 2012 kPa	15.86 ± 0.95	0.02338 ± 0.0007
423.15 K, 3435 kPa	26.9 ± 1.6	0.02354 ± 0.0007
423.15 K, 4832 kPa	37.69 ± 2.3	0.02373 ± 0.00071
